Patent US7820379B2, “Process for high throughput screening of CpG-based immuno-agonist/antagonist” (Coley Pharmaceutical GmbH, priority 2000, dated 2010)

System: monocyte-derived dendritic cells (MDDC)
Test: Cytokine production by monocyte-derived dendritic cells (ELISA)
Type: cell-based, human
Conditions: purified MDDC; ODN 2 μM, LPS 100 ng/ml
Method: Human dendritic cells (DC) have been claimed to be responsive to CpG-DNA. […] The converse was true for stimulation of monocyte-derived dendritic cells (MDDC) (FIG. 8 and unpublished data). […] IL-8 and TNF concentration was determined by enzyme-linked immunosorbent assay (ELISA). The CD123+DC response was DNA- and CpG-motif restricted. […] Due to this segregated response we analyzed TLR expression.

TCGTCGTTTTGTCGTTTTGTCGTT [ODN 2006]
response of MDDC (IL-8, TNF): not
